Publication PMC9020739, “Identification of a two-component regulatory system involved in antimicrobial peptide resistance in Streptococcus pneumoniae” (PLoS Pathogens, 2022)
Where a SMILES comes first, the peptide text is derived from it. Bridges are numbered along the chain shown (N, C = ends). [ ]: non-standard residue; d: D form. The star is where a group is joined. Ileψ(thiazoline)Cys = CC[C@H](C)[C@H](N)C1=N[C@H](C(=O)*)CS1; dOrn = NCCC[C@@H](N)C(=O)O

What was measured:
[1] = system: BceAB protein levels in R6 WT strain; assay: Quantitative proteomics (TMT labeling, LC-MS/MS); type: cell-based, Streptococcus pneumoniae; conditions: R6 wild-type, bacitracin 1 μg/ml for 45 min versus untreated
Protocol: (§1) In experiments 1 and 2, we analyzed the R6 WT and R6 Δtcs01 strains treated or not with 1 μg/mL of bacitracin. In experiment 3, we analyzed the R800-Δhk01-PcomX-rr01-hk01 strain treated with either 1 μg/mL or 32 μg/mL of bacitracin.
(§2) Strains were grown in 50 mL of THY medium at 37°C without agitation and in anaerobic conditions until the absorbance reaches approximatively 0.3. After the addition of bacitracin (final concentrations of 1 or 32 μg/mL), the bacterial cultures were incubated for 45 min at 37°C with a slight mechanical agitation (60 rpm). Then, the cell density was adjusted to an OD600nm = 0.8 in 10 mL. After centrifugation at 4,000 x g for 10 min at 4°C, the pellets were resuspended with 1 mL of cold Tris-HCl 50 mM pH 7.5 and centrifuged at 10,000 x g, for 5 min at 4°C. The pellets were harvested and treated in the same conditions than previously. The contents were transferred into Eppendorf low-binding tubes. After a last centrifugation at 10,000 x g for 5 min at 4°C, the bacterial pellets were stored at -80°C. […] The proteins were quantified by using BCA assay kit (Thermo Scientific) before sending the samples to mass spectrometry analysis.
(§3) To compare the proteins abundance between the different conditions/samples, we used a multiplexed quantitation method after labeling by isobaric Tandem Mass Tags (TMT). […]
(§4) We simultaneously compared 6 TMT samples within the same experiment. In the experiment 1 we analyzed one sixplex containing R6 WT, R6 WT+ Bacitracin 1, R6 WT+ Bacitracin 2, R6 ΔTCS, R6 ΔTCS+ Bacitracin 1, R6 ΔTCS+ Bacitracin 2 labeled with reporter ions 126, 127, 128, 129, 130 and 131, respectively; and experiment 2 is a second sixplex containing R6 WT1, R6 WT2, R6 WT+ Bacitracin, R6 ΔTCS1, R6 ΔTCS2, R6 ΔTCS+ Bacitracin labeled with reporter ions 126, 127, 128, 129, 130 and 131, respectively. The calculated ratios shown in Figs 5 and S5 are: experiment 1: R6 WT+ Bacitracin (1/2)/R6WT and R6 WT+ Bacitracin (1/2)/ R6 ΔTCS+ Bacitracin (1/2); experiment 2: R6 WT+ Bacitracin /R6WT (1/2) and R6 WT+ Bacitracin/ R6 ΔTCS+ Bacitracin. […]

[2] = system: protein levels in R6 Δtcs01 strain; assay: Quantitative proteomics (TMT labeling, LC-MS/MS); type: cell-based, Streptococcus pneumoniae
Protocol: as §1, §2, §3, §4

For `CC[C@H](C)[C@H](N)C1=N[C@H](C(=O)N[C@@H](CC(C)C)C(=O)N[C@H](CCC(=O)O)C(=O)N[C@H](C(=O)N[C@H]2CCCCNC(=O)[C@H](CC(N)=O)NC(=O)[C@@H](CC(=O)O)NC(=O)[C@H](Cc3cnc[nH]3)NC(=O)[C@@H](Cc3ccccc3)NC(=O)[C@H]([C@@H](C)CC)NC(=O)[C@@H](CCCN)NC2=O)[C@@H](C)CC)CS1` [bacitracin] ({Ileψ(thiazoline)Cys}-L[dE]IK[dOrn]I[dF]H[dD]N; lactam 4-C (inferred); N-terminus assumed), the “Accumulation of BceAB upon treatment” value [1] was 7 ± 3 fold, the “BceAB protein levels upon treatment” value ([2]; R6 Δtcs01, bacitracin 1 μg/ml for 45 min versus untreated, average) was 0.99 ± 0.09 fold and the “Abundance of LiaS upon treatment” value ([2]; R6 Δtcs01 treated with bacitracin, TMT proteomics) was “increased by two-fold”.
